According to patent publication EP4796561A1, “ANTI-SYNAPTOTAGMIN 2 ANTIBODY” (Jiksak Bioengineering, Inc., priority 2023, dated 2025):
Where a SMILES comes first, the peptide text is derived from it. [ ]: non-standard residue; d: D form. The star is where a group is joined. Dolaproine = CO[C@@H]([C@@H]1CCCN1)[C@@H](C)C(=O)O; Dil = CC[C@H](C)[C@H](NC)[C@@H](CC(=O)O)OC; X1 = C[C@@H](N*)[C@@H](O)c1ccccc1; NMeV = CN[C@H](C(=O)O)C(C)C

Experiments:
[1] = system: Human iPS-derived motor neuron; assay: Pharmacological effect of antibody-MMAE conjugates: axonal amount (Tuj1 staining) in motor neuron neurospheres with LRRTM2 bead-induced presynapse; type: cell-based; settings: normalized to Cont. IgG-MMAE set to 100%; 1µg/mL, 30 minutes with 100µM 4-aminopyridine, then 24 hours culture; Tuj1 brightness
Experimental: Human iPS-derived motor neuron (40HU-005-2M; ixcells biotechnologies) was thawed using Dead Cell Removal kit (Veritas) according to the protocol of the kit. The cells after thawing were plated in 96-well plates (V-bottom) at a density of 2×10^4 cells/well and cultured in the motor neuron culture medium (Motor Neuron Maintenance Medium; ixcells biotechnologies) for 1 week to prepare neurospheres. The prepared neurospheres were selected based on size and roundness, and those satisfying this criterion were used in the subsequent experiments.
After coating a 96-well EZVIEW (registered trademark) culture plate LB (AGC Technoglass Co., Ltd.) with poly-D-lysine and Geltrex (registered trademark) Matrix (Thermo Fisher Scientific), the selected neurospheres were then plated and cultured for 20 days. As the medium, the above-described motor neuron culture medium was used first, and medium change with the same medium was performed on the second day of culture. Thereafter, medium was changed three times per week using neuronal medium (Neurobasal plus medium (B27 plus supplement (Thermo Fisher Scientific), 20ng/mL BDNF, 20ng/mL GDNF, and penicillin-streptomycin were added)). Each medium change was performed at 50 µL/well.
Microbeads coated with the extracellular domain of LRRTM2 (active beads) were prepared as disclosed in WO2021/006075. […]

[2] = molecular target: human Synaptotagmin 2 expressed on HEK293T cells (human) (UniProt Q8N9I0); assay: flow cytometry on HEK293T cells expressing human SYT2 at 0.01 µg/mL antibody; reference is the polyclonal rabbit anti-SYT2 N-terminal antibody (Synaptic Systems 105 223)
Sequence of UniProt Q8N9I0 (Q8N9I0 whole entry): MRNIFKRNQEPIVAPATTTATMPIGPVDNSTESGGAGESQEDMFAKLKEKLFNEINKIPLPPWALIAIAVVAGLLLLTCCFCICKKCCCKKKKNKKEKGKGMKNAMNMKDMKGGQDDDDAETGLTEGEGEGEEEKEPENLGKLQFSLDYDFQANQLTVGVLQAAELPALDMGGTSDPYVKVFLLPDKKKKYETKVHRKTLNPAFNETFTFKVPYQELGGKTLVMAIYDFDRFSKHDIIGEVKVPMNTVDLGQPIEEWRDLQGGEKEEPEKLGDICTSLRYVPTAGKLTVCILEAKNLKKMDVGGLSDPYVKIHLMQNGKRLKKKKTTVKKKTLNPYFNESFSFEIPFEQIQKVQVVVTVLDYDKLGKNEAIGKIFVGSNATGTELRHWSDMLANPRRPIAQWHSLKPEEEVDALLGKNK

Question: For `CC[C@H](C)[C@@H]([C@@H](CC(=O)N1CCC[C@H]1[C@H](OC)[C@@H](C)C(=O)N[C@H](C)[C@@H](O)c1ccccc1)OC)N(C)C(=O)[C@@H](NC(=O)[C@@H](NC)C(C)C)C(C)C` [MMAE, monomethyl auristatin E] (H-[NMeV]V[Dil][Dolaproine]-X1), which “relative amount of axon” value [1] is on record?
Answer: no significant differences

B1: monoclonal antibody according to the present invention (anti-Synaptotagmin 2 intravesicular domain (N-terminal) monoclonal antibody) (antibody, V domains shown)
VH: EVQLQQSGAELVRPGASVKLSCTASGFNIKDDYVHWVKQRPEQGLEWIGWIDPENGDTEYASKFQGKATITADASSNAAYLQLSSLTSEDTAAYYCTTDYYNNPFAYWGQGTLVTVSA
VL: QIVLTQSPAIMSASPGEKVTITCSASSSVSYMHWFQQKPGTSPKLWIYSTSKLASGVPVRFSGSGSGTSYSLTISRMEAEDAATYYCQQRSSYPFTFGSGTKLEIK
Question: With B1 as the molecule, how does the fluorescence intensity relative to the control polyclonal antibody [2] read?
Answer: 2 fold
